Data: US9241976B2, “Use of HDL-related molecules to treat and prevent proinflammatory conditions” (THE REGENTS OF THE UNIVERSITY OF CALIFORNIA, priority 2011, dated 2016)

Tests used:
[1] = tested on: cis-platinum-resistant human ovarian cancer cells; conditions: reference (17); cited from earlier work
[2] = tested on: lysophosphatidic acid (LPA); experiment: Plasma LPA levels in treated mice; format: in vivo, mouse; conditions: for plasma LPA levels: vs control mice
Experimental: LPA (20:4) was purchased from Avanti Polar Lipids. LPA levels were determined as described previously (Murph et al., 2007, Methods Enymol 433:1-25).
LPA (20:4) was purchased from Avanti Polar Lipids. LPA levels were determined as described previously (19).

CT26 cells [3] = experiment: Tumor-load study: CT26 flank tumors in BALB/c mice; format: in vivo, mouse
Experimental: (§1) 6-week-old BALB/c female mice were given a 100 μL subcutaneous injection of 1×10^6 CT26 cells prepared as a single cell suspension in PBS, and the mice were treated with bHDLor BHDLat 10 mg/kg administered subcutaneously (SQ) daily for 15 days. The mice were sacrificed and tumor weights were measured.
6-week-old BALB/c female mice were given a 100 μl subcutaneous injection of 1×10^6 CT26 cells prepared as a single cell suspension in PBS, treated with peptide at 10 mg/kg by SQ daily for 15 days.
The mice were killed and tumor weights were measured. The tumor volumes were measured using the formula V=½ (L×W^2).
as §1, with “Six-week-old” for “6-week-old”, “[…]” for “μL”, “sc-4F or L-4F at” for “bHDLor BHDLat”, “subcutaneously” for “subcutaneously (SQ)”

[4] = reference (17); cited from earlier work
HIF-1α [5] = experiment: HIF-1α protein expression in human ovarian cancer cell lines, Western blot; format: cell-based
Experimental: OV2008 cells were cultured in RPMI 1640 media with 10% fetal bovine serum, penicillin (100 U/ml), streptomycin (100 μg/ml), 1× minimal essential medium nonessential amino acid solution (Invitrogen, Carlsbad, Calif.), and insulin (0.25 U/ml) (Invitrogen). CAOV-3 cells were cultured in complete media consisting of Dulbecco's modified Eagle's medium with high glucose and L-glutamine (2 mM), 10% fetal bovine serum, penicillin (100 U/ml), streptomycin (100 μg/ml), and insulin (0.02 U/ml). To create hypoxic conditions, cells were transferred to a hypoxic chamber (model 3130; Thermo Fisher Scientific, Waltham, Mass.), where they were maintained at 37° C. in an atmosphere containing 5% CO2, 1% O2, and 94% N2. L-4F (the peptide Ac-D-W-F-K-A-F-Y-D-K-V-A-E-K-F-K-E-A-F-NH2 (SEQ ID NO: 12) synthesized from all L amino acids) was dissolved in water at 1 mg/ml (freshly prepared every time) and used between 1 and 10 μg/ml. L-5F was synthesized by Peptisyntha Inc. (Torrance, Calif.), dissolved in ABCT buffer (50 mM ammonium bicarbonate, pH 7.0, containing 0.1 mg/ml Tween 20) at 1 mg/ml, and diluted to the required concentrations before use. Cobalt chloride (CoCl2), insulin, cycloheximide (CHX), and N-(benzyloxycarbonyl)leucinylleucinylleucinal-Z-Leu-Leu-Leu-al (MG-132) were purchased from Sigma-Aldrich (St. Louis, Mo.). LPA (Avanti Polar Lipids, Alabaster, Ala.) in chloroform was dried as recommended by the manufacturer, dissolved in ethanol at a concentration of 20 mM as a stock solution, and diluted to the required concentrations in the corresponding cell culture media before use.
Western blot analyses were performed as described previously (Gao et al., 2011). In brief, cell lysates were collected in a lysis buffer containing 0.1 MNaCl, 5 mM EDTA, 50 μM sodium orthovanadate, 1% Triton X-100, and protease inhibitor tablet (Roche Diagnostics, Indianapolis, Ind.) in 50 mM Tris buffer, pH 7.5, loaded onto 4 to 12% Bis-Tris gel (Invitrogen), transferred to polyvinylidene difluoride membrane, and incubated with the appropriate antibodies. Anti-pThr^202/Tyr^204-Erk, anti-Erk, anti-pThr^389-p70 S6 kinase, anti-p70 S6 kinase, anti-pSer^473-Akt, and anti-Akt antibodies were purchased from Cell Signaling Technology (Danvers, Mass.); mouse anti-human HIF-1α antibody was purchased from BD Pharmingen (San Diego, Calif.); rabbit anti-mouse HIF-1α antibody was purchased from Abcam Inc. (Cambridge, Mass.); and anti-GAPDH antibody was purchased from Santa Cruz Biotechnology Inc. (Santa Cruz, Calif.).

CD31 = CD31 immunohistochemistry of lung surface tumors; format: in vivo, mouse; conditions: 100 mg/kg/d in chow diet for 3 weeks, vs control mice
Experimental: Tumor tissues from the lung surface were fixed and embedded with paraffin, sectioned at […] thickness. Sections were deparaffinized with xylene, rehydrated with 100%, 90%, 70%, and 50% ethanol, treated with proteinase K at […] for 30 minutes, and treated with 3% H2O2 for 30 minutes at room temperature to inhibit endogenous peroxidase, blocked with 10% normal goat serum and 4% bovine serum albumin prepared in PBS for 3 hours, and then incubated with 1:50 rat antimouse monoclonal CD31 antibody overnight at 4° C. The sections were incubated with corresponding biotinylated secondary antibody for 1 hour, followed by incubation with Vectastain ABC Elite reagents.

CT26 cells [6] = experiment: CT26 cell viability, MTS assay; conditions: Example 6; MTS assay, within 48 hours of treatment
HIF-1α [7] = experiment: ID8 flank tumor model, HIF-1α immunohistochemistry; format: in vivo, mouse; conditions: C57BL/6J mice, ID8 tumors; 10 mg/kg s.c. daily for 3 weeks; vs sc-4F
Experimental: Nine-week-old C57BL/6J female mice were given a 0.5-ml subcutaneous injection of 5×10^6 ID8 cells prepared as a single cell suspension in PBS mixed with an equal volume of cold Matrigel (BD Biosciences, San Jose, Calif.). After 2 weeks, mice started to receive scrambled 4F peptide (sc-4F) or L-4F (10 mg/kg) by subcutaneous injection at a site distant from the site where the ID8 cells were injected daily for 3 weeks. After 3 weeks, the mice were sacrificed for tumor collection and further analyses.
Frozen tumor tissues were sectioned at a thickness of 5 μm and fixed with cold acetone for 10 min at −20° C. The sections were blocked with 10% normal goat serum and 4% bovine serum albumin prepared in PBS for 3 h and immediately incubated with rabbit anti-mouse polyclonal HIF-1α antibody (1:200) (Abcam Inc.) or rat anti-mouse monoclonal CD31 antibody (1:25) (Abcam Inc.) overnight at 4° C. The sections were then incubated with corresponding biotinylated secondary antibodies (Vector Laboratories) for 30 min at room temperature followed by incubation with Vectastain ABC Elite reagents (Vector Laboratories) to visualize the staining. Finally, sections were lightly counterstained with hematoxylin, dehydrated, and coverslipped with Vecta-Mount solution (Vector Laboratories).

[8] = Example 3, 10 mg/kg subcutaneous daily for 15 days

For “Ac-DWFKAFYDKVAEKFKEAF-NH2 [L-4F, Ac-D-W-F-K-A-F-Y-D-K-V-A-E-K-F-K-E-A-F-NH2]”, the viability and proliferation [1] is listed as “reduced”, the “plasma LPA levels” value ([2]; BALB/c lung tumor mice, 100 mg/kg/d in chow for 3 weeks) is listed as “significantly reduced” and the “plasma LPA levels” value ([2]; C57BL/6J-APC^min/+ mice, 100 mg/kg/d in mouse chow for 8 weeks) is listed as “significantly reduced”. For the same substance, the “decrease of plasma LPA levels compared with control mice” value ([2]; C57BL/6J-APC^min/+ mice, chow, 8 weeks) was over 50%, the flank tumor volume (CT26 cells [3]; [8]) was 313 mm^3 and the flank tumor weight (CT26 cells [3]; [8]) was 179 mg. For the same substance, the flank tumor weights (CT26 cells [3]; Example 5, 10 mg/kg subcutaneously daily for 15 days) was 389 mg, the “binding of LPA” value [4] was “binds” and the “CoCl2- and insulin-induced HIF-1α expression” value (HIF-1α [5]; CAOV-3 cells) was “dose-dependently inhibited”. For the same substance, the “HIF-1α expression, post-treatment” value (HIF-1α [5]; OV2008 cells stimulated first with CoCl2 or insulin 3 h or 24 h, 10 μg/ml) was “significantly decreased”, the “hypoxia-induced (low oxygen 1% O2, CoCl2) HIF-1α protein expression” value (HIF-1α [5]; OV2008 cells, pretreatment) was “dose-dependently suppressed” and the “CoCl2- and insulin-induced HIF-1α expression” value (HIF-1α [5]; SKOV3 cells) was “dose-dependently inhibited”. For the same substance, the “CD31 expression in tumors” value (CD31) was “significant decrease”, the “CT26 cell viability vs vehicle-treated controls” value (CT26 cells [6]) was “reduced cell viability” and the “HIF-1α expression in tumor tissues” value (HIF-1α [7]) was “decreased”.
